{"source": "patent US10512667B2", "about": "“Compositions and methods for treating conditions related to adrenocortical activity and/or excessive steroid production” (The Regents of the University of Michigan, priority 2017, dated 2019)", "key": {"H295R cells [1]": {"system": "H295R cells", "test": "Resazurin reducing potential", "format": "cell-based", "settings": "32 μM ATR-101", "description": "FIG. 4F: […] The cells were cultured with DMSO vehicle or 32 μM ATR-101 alone, or together with 2 mM MβCD. Resazurin fluorescence intensity was measured using a microplate reader at the indicated times at 37 C. The background signal of wells without resazurin was subtracted. […] DMSO control, *P<0.05)."}, "H295R cells [2]": {"system": "H295R cells", "test": "Visualization of cholesterol levels by filipin III binding", "format": "cell-based", "settings": "H295R cells; for cholesterol level / accumulation (filipin III binding), compound alone: serum-containing medium", "procedure,_shortened": "(§1)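 Cells adhered 48 h, treated with compounds, fixed in 4% paraformaldehyde 20 min, then stained with 100 μg/ml filipin III for 2 h at 37 C in the dark and imaged. Esterification visualized after 2 h culture with 1 μM NBD-cholesterol following compound incubation.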"}, "BD140C cells [3]": {"system": "BD140C cells", "test": "Visualization of cholesterol levels by filipin III binding", "format": "cell-based", "settings": "4 h", "procedure,_shortened": "as §1"}, "H295R cells [4]": {"system": "H295R cells", "test": "Cortisol secretion (indirect ELISA)", "format": "cell-based", "description": "Cortisol secretion was measured by replacing the culture medium with fresh medium containing the indicated compounds. The medium was collected at the indicated times. The cortisol concentration in the medium was measured using indirect ELISA (Arbor Assays).\nAfter 48 h, the medium was removed and replaced with 50 μl of fresh medium. After the indicated incubation time, aliquots of the supernatant ranging from 0.5 to 10 μl were diluted in 50 μl of medium were used to measure the amount of cortisol secreted. Cortisol detection and quantification were performed by indirect ELISA according to the manufacturer's protocol (Arbor Assays #K003)."}, "adrenal cortex": {"system": "adrenal cortex", "settings": "in vivo; cited from earlier work"}, "H295R cells [5]": {"system": "H295R cells", "test": "Cholesterol crystallization and extracellular cholesterol associated with cells", "format": "cell-based", "description": "To quantify cholesterol crystallization, experiments were conducted that measured the total extracellular cholesterol that was associated with the cells. After culturing cells with the indicated compounds, the culture medium was removed. Medium lacking cholesterol was added to the cells, and the extracellular cholesterol that was released into the wash medium was collected after 30 seconds. To establish if the cholesterol that was released from the cells was exported by ABCA1, the wash step was performed in parallel using media with and without 50 μM glibenclamide, which inhibits ABCA1 activity. The total amount of cell-associated cholesterol that was released into the wash medium was measured using a fluorometric enzyme-linked assay (Cayman Chemical). Cholesterol esters were hydrolyzed using cholesterol esterase. Cholesterol was oxidized by cholesterol oxidase, producing hydrogen peroxide. The hydrogen peroxide was reacted with 10-acetyl-3,7-dihydroxyphenoxazine (ADHP) in the presence of horseradish peroxidase to produce resorufin. Resorufin fluorescence was measured using 555 nm exitation and 590 nm emission wavelengths in a SpectraMax M5 microplate reader (Molecular Devices).\nThe medium was removed and replaced with 50 μl serum-free medium supplemented with 5 μg/mL apo-AI (without or with 50 μM glyburide to detect ABCA1 transporter-dependent efflux) for either 30 sec or 1 h at 37 C in 5% CO2 atmosphere. After the indicated time, the supernatant, was transferred to a new 96-well plate and a fluorometric-base cholesterol detection assay cocktail was added."}, "[6]": {"system": "guinea pig adrenal glands", "settings": "cited from earlier work"}, "BD140C cells [7]": {"system": "BD140C cells", "test": "Cellular ATP level (CellTiter-Glo)", "format": "cell-based", "protocol": "The ATP levels of cells were measured by lysis in CellTiter-Glo reagent (Promega), and measurement of the luminescence.\nAfter 48 h, 20-80 μl of medium was removed from each well and replaced with 20 μl of each compound diluted to 6× of the final concentration in the culture medium to produce a final volume of 120 μl. The cells were incubated at 37 C in 5% CO2 atmosphere for a time ranging from 15 min to 24 h. The medium was removed and immediately replaced with 50 μl of CellTiter-Glo luminescence cell viability assay reagent (Promega). The cells were lysed by agitation at room temperature for 20 min in the dark. The luminescence was measured using a SpectraMax M5 microplate reader (Molecular Devices) with a 0.5 s acquisition time. The luminescence (RLU) values for control cells ranged from 5000 to 20000 RLU in all experiments, and were scaled by a factor of 0.001 to plot all graphs."}, "H295R cells [8]": {"system": "H295R cells", "test": "Caspase 3/7 activity (Apo-ONE)", "format": "cell-based", "settings": "H295R cells", "description": "(§2) The samples were incubated for 18 h at room temperature in the dark. The fluorescence was measured using a SpectraMax M5 microplate reader with a 0.5 s acquisition time."}, "BD140C cells [9]": {"system": "BD140C cells", "test": "Caspase 3/7 activity (Apo-ONE)", "format": "cell-based", "description": "as §2"}}, "note": "Entries after “also recorded” stand apart in the source; their conditions may differ."}
{"smiles": "CC(C)c1cccc(C(C)C)c1NC(=O)NCC1(c2ccc(N(C)C)cc2)CCCC1.Cl", "note": "[ATR-101, N-(2,6-bis(1-methylethyl)phenyl)-N′-((1-(4-(dimethylamino)phenyl)cyclopentyl)methyl)urea hydrochloride]", "values": [{"measurement": "resazurin fluorescence", "setting": "H295R cells [1]", "result": "sustained increase in resazurin fluorescence"}, {"measurement": "cholesterol level / accumulation (filipin III binding), compound alone", "setting": "H295R cells [2]; 24 h", "result": "increase in intracellular cholesterol"}, {"measurement": "cholesterol level / accumulation (filipin III binding), compound alone", "setting": "H295R cells [2]; up to 4 h, hydrochloride", "result": "caused cholesterol accumulation in or near the plasma membrane; also recorded: increase in cholesterol accumulation in the plasma membrane; also recorded: higher levels of filipin III binding to the plasma membrane"}, {"measurement": "cholesterol level (filipin III binding), compound alone", "setting": "H295R cells [2]; serum-free medium containing apoA-I, 4 h, hydrochloride", "result": "increased the level of cholesterol in intracellular membranes; also recorded: increased the cholesterol levels; also recorded: higher cholesterol levels"}, {"measurement": "cholesterol level / accumulation (filipin III binding), compound alone", "setting": "BD140C cells [3]", "result": "caused cholesterol accumulation in or near the plasma membrane"}, {"measurement": "basal and forskolin-stimulated cortisol secretion", "setting": "H295R cells [4]; 100 μM ATR-101, with or without 100 μM forskolin", "result": "blocked both basal and forskolin-stimulated cortisol secretion"}, {"measurement": "cortisol secretion, compound alone", "setting": "H295R cells [4]; cortisol in medium, 4 h or time course, hydrochloride", "result": "inhibited cortisol secretion"}, {"measurement": "adrenalytic activity", "setting": "adrenal cortex", "result": "has adrenalytic activity"}, {"measurement": "cholesterol crystallization at the plasma membrane, compound alone", "setting": "H295R cells [5]; 40 μM ATR-101, 24 h, hydrochloride", "result": "associated with crystals that emanated from the cell membrane; also recorded: cholesterol crystallization at the plasma membrane"}, {"measurement": "total extracellular cholesterol associated with cells", "setting": "H295R cells [5]; 4 h, 100 μM ATR-101 or 40 μM cholesterol", "result": "increased the total extracellular cholesterol"}, {"measurement": "increase of the cholesterol level of adrenal glands", "setting": "[6]; after 24 hours", "result": 3, "unit": "fold"}, {"measurement": "onset of rise of the cholesterol level of adrenal glands", "setting": "[6]; after ATR-101 administration", "result": "rises within an hour"}, {"measurement": "ATP level, compound alone", "setting": "BD140C cells [7]; 4 h", "result": "reduced the ATP level"}, {"measurement": "ATP level, compound alone", "setting": "BD140C cells [7]; 24 h", "result": "reduced the ATP levels"}, {"measurement": "time after ATR-101 addition at which caspase activation was detected", "setting": "H295R cells [8]; 100 μM ATR-101", "result": 15, "unit": "min"}, {"measurement": "caspase 3/7 activity, compound alone", "setting": "H295R cells [8]; serum-containing medium, 4 h", "result": "increased the caspase 3/7 activity"}, {"measurement": "caspase 3/7 activity, compound alone", "setting": "H295R cells [8]; serum-containing medium, 24 h", "result": "increased the caspase 3/7 activities"}, {"measurement": "caspase 3/7 activity, compound alone", "setting": "H295R cells [8]; serum-free medium, 4 h", "result": "caused ATP depletion and caspases activation with the same potency"}, {"measurement": "caspase 3/7 activity, compound alone", "setting": "BD140C cells [9]; 4 h", "result": "increased the caspase 3/7 activity"}, {"measurement": "caspase 3/7 activity, compound alone", "setting": "BD140C cells [9]; 24 h", "result": "increased the caspase 3/7 activities"}]}
